Test results: BindingDB's records for doi:10.1021/jm800245z (Merck Research Laboratories, 2008)

Target: Gag-Pol polyprotein (Human immunodeficiency virus type 1 group M subtype B (isolate HXB2), UniProt P04585)
Assay: Microtiter Plate Assay for Strand Transfer
Conditions: pH 7.8; 37 °C
Description: The microtiter plate assay for stand transfer was performed with an immobilized donor substrate and a target substrate biotinylated at the 3-prime end of each DNA strand. Integrase was first assembled with immobilized LTR oligonucleotides for 30 min. Inhibitors were added after assembly and washings. For the strand transfer reaction, it was initiated with the addition of the biotinylated target substrate. Strand transfer reaction mixtures were incubated for additional 30 min, and the strand transfer products were detected by using alkaline phosphatase-conjugated avidin (Boehringer Mannheim, Indianapolis, Ind.).

IC50: > 5 µM
SMILES: CNC(=O)c1nc(C(C)(C)NC(=O)C(=O)N(C)C)n(C)c(=O)c1O [N-{2-[5-hydroxy-1-methyl-4-(methylcarbamoyl)-6-oxo-1,6-dihydropyrimidin-2-yl]propan-2-yl}-N',N'-dimethylethanediamide]
